ChEMBL document CHEMBL3414511, “Synthesis of a novel class of substituted benzothiophene or benzofuran derivatives as BMP-2 up-regulators and evaluation of the BMP-2-up-regulating effects in vitro and the effects on glucocorticoid-induced osteoporosis in rats” (Eur J Med Chem, 2015)
Active and inactive are the calls of the source. No cut-off for these calls is given here.

How the values were obtained:
[1] = system: Rattus norvegicus; experiment: Toxicity in glucocorticoid-induced Wistar rat osteoporosis model assessed as effect on blood urea nitrogen level at 30 mg/kg/day, po administered six times a week for 3 months; type: organism-based; design: route oral; conditions: in vivo
[2] = system: Rattus norvegicus; experiment: Toxicity in glucocorticoid-induced Wistar rat osteoporosis model assessed as effect on platelets at 30 mg/kg/day, po administered six times a week for 3 months; type: organism-based; design: route oral; conditions: in vivo
[3] = system: Rattus norvegicus; experiment: Toxicity in glucocorticoid-induced Wistar rat osteoporosis model assessed as alanine transaminase level at 30 mg/kg/day, po administered six times a week for 3 months (reference value: 43.73 +/- 36.21 U/L); type: organism-based; design: route oral; conditions: in vivo
[4] = system: Rattus norvegicus; experiment: Antiosteoporotic activity in glucocorticoid-induced Wistar rat osteoporosis model assessed as mineral apposition rate at 30 mg/kg/day, po administered six times a week for 3 months by fluorescence assay (reference value: 1.06 +/- 0.27 micrometer/day); type: functional
[5] = system: Rattus norvegicus; experiment: Toxicity in glucocorticoid-induced Wistar rat osteoporosis model assessed as effect on hemoglobin at 30 mg/kg/day, po administered six times a week for 3 months; type: organism-based; design: route oral; conditions: in vivo
[6] = system: Rattus norvegicus; experiment: Toxicity in glucocorticoid-induced Wistar rat osteoporosis model assessed as effect on albumin level at 30 mg/kg/day, po administered six times a week for 3 months; type: organism-based; design: route oral; conditions: in vivo
[7] = system: Rattus norvegicus; experiment: Antiosteoporotic activity in glucocorticoid-induced Wistar rat osteoporosis model assessed as trabecula resorption surface at 30 mg/kg/day, po administered six times a week for 3 months by fluorescence assay (reference value: 7.22 +/- 2.04%); type: functional
[8] = Upregulation of BMP-2 expression in mouse MC3T3-E1 cells at 4 uM after 24 hrs by luciferase reporter gene assay relative to control; type: functional, cell-based
[9] = system: Rattus norvegicus; experiment: Antiosteoporotic activity in glucocorticoid-induced Wistar rat osteoporosis model assessed as trabecular bone volume at 30 mg/kg/day, po administered six times a week for 3 months by fluorescence assay (reference value: 33.09 +/- 5.15%); type: functional, Trabecula
[10] = system: Rattus norvegicus; experiment: Antiosteoporotic activity in glucocorticoid-induced Wistar rat osteoporosis model assessed as trabecula formation surface at 30 mg/kg/day, po administered six times a week for 3 months by fluorescence assay (reference value: 7.82 +/- 2.46%); type: functional
[11] = system: Rattus norvegicus; experiment: Toxicity in glucocorticoid-induced Wistar rat osteoporosis model assessed as effect on total protein level at 30 mg/kg/day, po administered six times a week for 3 months; type: organism-based; design: route oral; conditions: in vivo
[12] = system: Rattus norvegicus; experiment: Toxicity in glucocorticoid-induced Wistar rat osteoporosis model assessed as neutrophilic granulocytes level at 30 mg/kg/day, po administered six times a week for 3 months (reference value: 31.95 +/- 8.33%); type: organism-based; design: route oral; conditions: in vivo
[13] = system: Rattus norvegicus; experiment: Toxicity in glucocorticoid-induced Wistar rat osteoporosis model assessed as effect on glucose level at 30 mg/kg/day, po administered six times a week for 3 months; type: organism-based; design: route oral; conditions: in vivo
[14] = system: Rattus norvegicus; experiment: Toxicity in glucocorticoid-induced Wistar rat osteoporosis model assessed as effect on red blood cell specific volume at 30 mg/kg/day, po administered six times a week for 3 months; type: organism-based; design: route oral; conditions: in vivo
[15] = system: Rattus norvegicus; experiment: Toxicity in glucocorticoid-induced Wistar rat osteoporosis model assessed as effect on red blood cells at 30 mg/kg/day, po administered six times a week for 3 months; type: organism-based; design: route oral; conditions: in vivo
[16] = system: Rattus norvegicus; experiment: Toxicity in glucocorticoid-induced Wistar rat osteoporosis model assessed as effect on creatinine level at 30 mg/kg/day, po administered six times a week for 3 months; type: organism-based; design: route oral; conditions: in vivo
[17] = system: Rattus norvegicus; experiment: Antiosteoporotic activity in glucocorticoid-induced Wistar rat osteoporosis model appearance of turbulent and sparse rarefection of trabecula at 30 mg/kg/day, po administered six times a week for 3 months by toluidine blue staining-based light microscopic analysis; type: functional, organism-based
[18] = system: Rattus norvegicus; experiment: Toxicity in glucocorticoid-induced Wistar rat osteoporosis model assessed as lymph level at 30 mg/kg/day, po administered six times a week for 3 months (reference value: 50.35 +/- 12.96%); type: organism-based; design: route oral; conditions: in vivo
[19] = system: Rattus norvegicus; experiment: Toxicity in glucocorticoid-induced Wistar rat osteoporosis model assessed as white blood cells at 30 mg/kg/day, po administered six times a week for 3 months (reference value: 6.28 +/- 2.78 x 10^9/L); type: organism-based; design: route oral; conditions: in vivo
[20] = system: Rattus norvegicus; experiment: Toxicity in glucocorticoid-induced Wistar rat osteoporosis model assessed as effect on red blood cell distribution width at 30 mg/kg/day, po administered six times a week for 3 months; type: organism-based; design: route oral; conditions: in vivo
[21] = system: Rattus norvegicus; experiment: Toxicity in glucocorticoid-induced Wistar rat osteoporosis model assessed as triglycerides level at 30 mg/kg/day, po administered six times a week for 3 months (reference value: 1.13 +/- 0.69 mmol/L); type: organism-based; design: route oral; conditions: in vivo
[22] = system: Rattus norvegicus; experiment: Toxicity in glucocorticoid-induced Wistar rat osteoporosis model assessed as effect on mean corpuscular hemoglobin concentration at 30 mg/kg/day, po administered six times a week for 3 months; type: organism-based; design: route oral; conditions: in vivo
[23] = system: Rattus norvegicus; experiment: Toxicity in glucocorticoid-induced Wistar rat osteoporosis model assessed as effect on mean corpuscular volume at 30 mg/kg/day, po administered six times a week for 3 months; type: organism-based; design: route oral; conditions: in vivo
[24] = system: Rattus norvegicus; experiment: Toxicity in glucocorticoid-induced Wistar rat osteoporosis model assessed as aspartate transaminase level at 30 mg/kg/day, po administered six times a week for 3 months (reference value: 177.55 +/- 116.98 U/L); type: organism-based; design: route oral; conditions: in vivo
[25] = system: Rattus norvegicus; experiment: Toxicity in glucocorticoid-induced Wistar rat osteoporosis model assessed as effect on total bilirubin level at 30 mg/kg/day, po administered six times a week for 3 months; type: organism-based; design: route oral; conditions: in vivo
[26] = system: Mus musculus; experiment: Acute toxicity in Kunming mouse assessed as shiny fur at 700 mg/kg, po administered for 3 days measured during compound dosing and following 14 days; type: organism-based; design: dose 700 mg/kg, route oral; conditions: in vivo, 336 h
[27] = system: Rattus norvegicus; experiment: Antiosteoporotic activity in glucocorticoid-induced Wistar rat osteoporosis model assessed as densed trabecula at 30 mg/kg/day, po administered six times a week for 3 months by toluidine blue staining-based light microscopic analysis relative to dexamethasone; type: functional, organism-based
[28] = system: Mus musculus; experiment: Acute toxicity in Kunming mouse assessed as behavioral changes at 700 mg/kg, po administered for 3 days measured during compound dosing and following 14 days; type: organism-based; design: dose 700 mg/kg, route oral; conditions: in vivo, 336 h
[29] = Acute toxicity in po dosed Kunming mouse administered for 3 days measured during compound dosing and following 14 days; type: organism-based; conditions: in vivo

SMILES	Activity [1]	Activity [2]	Activity [3]	Activity [4]	Activity [5]	Activity [6]	Activity [7]	Activity [8]	Activity [9]	Activity [10]	Activity [11]	Activity [12]	Activity [13]	Activity [14]	Activity [15]	Activity [16]	Activity [18]	Activity [19]	Activity [20]	Activity [21]	further results
CC(=O)c1cc2ccc(C(=O)O)cc2s1	Non-toxic	Non-toxic	31.17 U/L	0.97 micrometer/day	Non-toxic	Non-toxic	10.9%	102%	20.5%	4.61%	Non-toxic	47.16%	Non-toxic	Non-toxic	Non-toxic	Non-toxic	35.72%	3.55 ×10⁹ /L	Non-toxic	0.53 mmol/L	Activity [17]: inactive; Activity [22]: Non-toxic; Activity [23]: Non-toxic; Activity [24]: 123.33 U/L; Activity [25]: Non-toxic
COC(=O)c1ccc2cc(C(C)=O)sc2c1	Non-toxic	Non-toxic	31.55 U/L	0.99 micrometer/day	Non-toxic	Non-toxic	9.52%	85.2%	24.72%	5.95%	Non-toxic	48.93%	Non-toxic	Non-toxic	Non-toxic	Non-toxic	34.98%	4.52 ×10⁹ /L	Non-toxic	0.52 mmol/L	Activity [26]: Non-toxic; Activity [27]: Active; Activity [28]: Non-toxic; LD50 at 336 h [29]: > 700 mg/kg; Activity [22]: Non-toxic; Activity [23]: Non-toxic; Activity [24]: 119.08 U/L; Activity [25]: Non-toxic
